{"source": "ChEMBL document CHEMBL3046562", "about": "“Pharmacological Effects of Imidacloprid and Its Related Compounds on the Nicotinic Acetyicholine Receptor with Its Ion Channel from the Torpedo Electric Organ” (J Pestic Sci, 1995)", "key": {"[1]": {"test": "Displacement of [3H]alpha-BGT from nAChR in Torpedo nobiliana electric organs membranes by scintillation counting method"}, "[2]": {"molecular_target": "Acetylcholine receptor subunit alpha (Torpedo californica) (UniProt P02710)", "sequence (P02710 whole entry)": "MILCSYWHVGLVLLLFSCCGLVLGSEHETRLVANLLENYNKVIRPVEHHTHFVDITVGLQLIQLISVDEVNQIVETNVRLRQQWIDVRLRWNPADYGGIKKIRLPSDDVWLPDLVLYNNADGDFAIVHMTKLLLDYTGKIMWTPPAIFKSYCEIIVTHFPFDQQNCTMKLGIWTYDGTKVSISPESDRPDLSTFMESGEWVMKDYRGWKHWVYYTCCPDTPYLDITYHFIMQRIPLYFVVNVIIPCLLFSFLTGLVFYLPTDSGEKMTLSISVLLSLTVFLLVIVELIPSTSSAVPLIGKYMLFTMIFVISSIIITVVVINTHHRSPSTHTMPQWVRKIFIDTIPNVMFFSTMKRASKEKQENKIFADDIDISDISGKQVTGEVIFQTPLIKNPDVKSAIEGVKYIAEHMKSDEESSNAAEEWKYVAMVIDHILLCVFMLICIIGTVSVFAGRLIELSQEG", "test": "Increase in [3H]PCP binding to nAChR in Torpedo nobiliana electric organs membranes by scintillation counting method", "type": "tissue-based", "conditions": "Electric organ"}, "[3]": {"molecular_target": "Acetylcholine receptor subunit alpha (Torpedo californica) (UniProt P02710)", "test": "Displacement of [3H]alpha-BGT from nAChR in Torpedo nobiliana electric organs membranes at 1000 uM by scintillation counting method", "type": "tissue-based", "conditions": "Electric organ"}, "[4]": {"molecular_target": "Acetylcholine receptor subunit alpha (Torpedo californica) (UniProt P02710)", "test": "Displacement of [3H]PCP from nAChR in Torpedo nobiliana electric organs membranes assessed as [3H]PCP binding level at 300 uM by scintillation counting method relative to untreated control", "type": "tissue-based", "conditions": "Electric organ"}, "[5]": {"molecular_target": "Acetylcholine receptor subunit alpha (Torpedo californica) (UniProt P02710)", "test": "Displacement of [3H]PCP from nAChR in Torpedo nobiliana electric organs membranes assessed as [3H]PCP binding level at 300 uM in presence of 100 uM carbachol by scintillation counting method relative to untreated control", "type": "tissue-based", "conditions": "Electric organ"}, "[6]": {"molecular_target": "Acetylcholine receptor subunit alpha (Torpedo californica) (UniProt P02710)", "test": "Displacement of [3H]PCP from nAChR in Torpedo nobiliana electric organs membranes assessed as [3H]PCP binding level at 300 uM pre-treated with 0.5 uM alpha-bungarotoxin by scintillation counting method relative to untreated control", "type": "tissue-based", "conditions": "Electric organ"}, "[7]": {"molecular_target": "Acetylcholine receptor subunit alpha (Torpedo californica) (UniProt P02710)", "test": "Displacement of [3H]PCP from nAChR in Torpedo nobiliana electric organs membranes at 300 uM by scintillation counting method", "type": "tissue-based", "conditions": "Electric organ"}, "[8]": {"molecular_target": "Acetylcholine receptor subunit alpha (Torpedo californica) (UniProt P02710)", "test": "Displacement of [3H]alpha-BGT from nAChR in Torpedo nobiliana electric organs membranes at 300 uM by scintillation counting method", "type": "tissue-based", "conditions": "Electric organ"}, "[9]": {"molecular_target": "Acetylcholine receptor subunit alpha (Torpedo californica) (UniProt P02710)", "test": "Displacement of [3H]PCP from nAChR in Torpedo nobiliana electric organs membranes at 1000 uM by scintillation counting method", "type": "tissue-based", "conditions": "Electric organ"}, "[10]": {"molecular_target": "Acetylcholine receptor subunit alpha (Torpedo californica) (UniProt P02710)", "test": "Displacement of [3H]PCP from nAChR in Torpedo nobiliana electric organs membranes assessed as [3H]PCP binding level at 1000 uM pre-treated with 0.5 uM alpha-bungarotoxin by scintillation counting method relative to untreated control", "type": "tissue-based", "conditions": "Electric organ"}, "[11]": {"molecular_target": "Acetylcholine receptor subunit alpha (Torpedo californica) (UniProt P02710)", "test": "Displacement of [3H]PCP from nAChR in Torpedo nobiliana electric organs membranes assessed as [3H]PCP binding level at 1000 uM in presence of 100 uM carbachol by scintillation counting method relative to untreated control", "type": "tissue-based", "conditions": "Electric organ"}, "[12]": {"molecular_target": "Acetylcholine receptor subunit alpha (Torpedo californica) (UniProt P02710)", "test": "Displacement of [3H]PCP from nAChR in Torpedo nobiliana electric organs membranes assessed as [3H]PCP binding level at 1000 uM by scintillation counting method relative to untreated control", "type": "tissue-based", "conditions": "Electric organ"}, "[13]": {"molecular_target": "Acetylcholine receptor subunit alpha (Torpedo californica) (UniProt P02710)", "test": "Increase in [3H]PCP binding to nAChR in Torpedo nobiliana electric organs membranes at 1 to 3 uM by scintillation counting method", "type": "tissue-based", "conditions": "Electric organ"}, "[14]": {"molecular_target": "Acetylcholine receptor subunit alpha (Torpedo californica) (UniProt P02710)", "test": "Displacement of [3H]PCP from nAChR in Torpedo nobiliana electric organs membranes assessed as [3H]PCP binding level at 500 uM by scintillation counting method relative to untreated control", "type": "tissue-based", "conditions": "Electric organ"}, "[15]": {"molecular_target": "Acetylcholine receptor subunit alpha (Torpedo californica) (UniProt P02710)", "test": "Displacement of [3H]PCP from nAChR in Torpedo nobiliana electric organs membranes assessed as [3H]PCP binding level at 500 uM in presence of 100 uM carbachol by scintillation counting method relative to untreated control", "type": "tissue-based", "conditions": "Electric organ"}}, "note": "Calls of active or inactive are those of the source. No cut-off for these calls is given here."}
{"smiles": "C[N+](C)(C)CCOC(N)=O", "note": "[CARBACHOL]", "values": [{"measurement": "IC50", "setting": "[1]", "value": 7.64, "unit": "µM"}, {"measurement": "Activity", "setting": "[2]", "value": "Active"}]}
{"smiles": "CNC1(C)C2CCC(C2)C1(C)C", "note": "(configuration not stated)", "values": [{"measurement": "inhibition", "setting": "[3]", "value": 0, "unit": "%"}]}
{"smiles": "C/C(=N\\C#N)N(C)Cc1ccc(Cl)nc1", "values": [{"measurement": "Activity", "setting": "[4]", "value": 221, "unit": "%"}, {"measurement": "Activity", "setting": "[5]", "value": 93.3, "unit": "%"}, {"measurement": "Activity", "setting": "[6]", "value": 104, "unit": "%"}]}
{"smiles": "CCC[C@H]1CCCCN1", "values": [{"measurement": "Activity", "setting": "[2]", "value": "Active"}]}
{"smiles": "CNC1(c2ccccc2Cl)CCCCC1=O", "note": "(configuration not stated)", "values": [{"measurement": "inhibition", "setting": "[3]", "value": 0.1, "unit": "%"}]}
{"smiles": "CN1[C@@H](CC(=O)c2ccccc2)CCC[C@H]1C[C@H](O)c1ccccc1", "values": [{"measurement": "inhibition", "setting": "[3]", "value": 0, "unit": "%"}]}
{"smiles": "CN(C)C1CSSC1", "values": [{"measurement": "Activity", "setting": "[2]", "value": "Active"}]}
{"smiles": "CN(C)CCCN1c2ccccc2Sc2ccc(Cl)cc21", "values": [{"measurement": "inhibition", "setting": "[3]", "value": 7.15, "unit": "%"}]}
{"smiles": "c1ccc(C2(N3CCCCC3)CCCCC2)cc1", "values": [{"measurement": "inhibition", "setting": "[3]", "value": 3.2, "unit": "%"}]}
{"smiles": "c1cncc([C@@H]2CCCCN2)c1", "note": "[ANABASINE]", "values": [{"measurement": "IC50", "setting": "[1]", "value": 193, "unit": "µM"}, {"measurement": "Activity", "setting": "[2]", "value": "Active"}]}
{"smiles": "O=c1cccc2n1C[C@@H]1CNC[C@H]2C1", "values": [{"measurement": "Activity", "setting": "[2]", "value": "Active"}]}
{"smiles": "O=C1N(Cc2ccccc2)C2C[S+]3CCCC3C2N1Cc1ccccc1", "note": "(configuration not stated)", "values": [{"measurement": "inhibition", "setting": "[7]", "value": 5.93, "unit": "%"}, {"measurement": "inhibition", "setting": "[8]", "value": 5.7, "unit": "%"}, {"measurement": "inhibition", "setting": "[9]", "value": 59.5, "unit": "%"}]}
{"smiles": "CN1CCC[C@@H]1c1cccnc1", "values": [{"measurement": "Activity", "setting": "[2]", "value": "Active"}]}
{"smiles": "CN1CCC[C@H]1c1cccnc1", "note": "[NICOTINE]", "values": [{"measurement": "IC50", "setting": "[1]", "value": 23.1, "unit": "µM"}, {"measurement": "Activity", "setting": "[2]", "value": "Active"}]}
{"smiles": "c1csc(C2(N3CCCCC3)CCCCC2)c1", "values": [{"measurement": "inhibition", "setting": "[8]", "value": 0.91, "unit": "%"}]}
{"smiles": "O=[N+]([O-])C=C1NCCCS1", "values": [{"measurement": "Activity", "setting": "[10]", "value": 112, "unit": "%"}, {"measurement": "IC50", "setting": "[1]", "value": 1590, "unit": "µM"}, {"measurement": "Activity", "setting": "[11]", "value": 762, "unit": "%"}, {"measurement": "Activity", "setting": "[12]", "value": 439, "unit": "%"}]}
{"smiles": "CSCCN1CCN/C1=C\\[N+](=O)[O-]", "values": [{"measurement": "Activity", "setting": "[4]", "value": 181, "unit": "%"}, {"measurement": "Activity", "setting": "[5]", "value": 830, "unit": "%"}]}
{"smiles": "COc1cc2c3cc1Oc1cc(ccc1O)C[C@@H]1c4c(cc(OC)c(O)c4Oc4ccc(cc4)C[C@@H]3N(C)CC2)CC[N+]1(C)C", "values": [{"measurement": "inhibition", "setting": "[7]", "value": 91.3, "unit": "%"}, {"measurement": "Activity", "setting": "[2]", "value": "Active"}, {"measurement": "Activity", "setting": "[13]", "value": 160, "unit": "%"}]}
{"smiles": "CCN(Cc1ccc(Cl)nc1)/C(=C/[N+](=O)[O-])NC", "values": [{"measurement": "inhibition", "setting": "[8]", "value": 2.39, "unit": "%"}, {"measurement": "Activity", "setting": "[14]", "value": 142, "unit": "%"}, {"measurement": "Activity", "setting": "[15]", "value": 607, "unit": "%"}]}
{"smiles": "O=[N+]([O-])/N=C1\\NCCN1Cc1ccc(Cl)nc1", "note": "[IMIDACLOPRID]", "values": [{"measurement": "Activity", "setting": "[4]", "value": 287, "unit": "%"}, {"measurement": "IC50", "setting": "[1]", "value": 1060, "unit": "µM"}, {"measurement": "Activity", "setting": "[5]", "value": 92.4, "unit": "%"}, {"measurement": "Activity", "setting": "[6]", "value": 108, "unit": "%"}]}
{"smiles": "O=[N+]([O-])/C=C1\\NCCN1Cc1ccc(Cl)nc1", "values": [{"measurement": "Activity", "setting": "[4]", "value": 461, "unit": "%"}, {"measurement": "Activity", "setting": "[5]", "value": 94.6, "unit": "%"}, {"measurement": "Activity", "setting": "[6]", "value": 142, "unit": "%"}]}
{"smiles": "C[N+]1(C)CCN(c2ccccc2)CC1", "values": [{"measurement": "Activity", "setting": "[2]", "value": "Active"}]}
